What was measured:
BRPF1 = molecular target: T1, BRPF1 (Homo sapiens, UniProt P55201); test: BROMOscan BRPF1; assay type: binding
T1 construct: ≥2000-fold selectivity over all 20 non-BET bromodomains tested; purchased DiscoverX
Method: (§1) The BRD4 BD1/BD2 TR-FRET assay had been used routinely for this optimization work, and in order to better understand the BET BD1 domain selectivity profile, 31 was tested in TR-FRET BRD2, BRD3, and BRDT assays.
(§2) [52] BROMOscan recombinant protein binding assays were carried out at DiscoverX. (accessed April 4, 2023).

M2 (CHRM2) = molecular target: T2, M2 (CHRM2) (Homo sapiens, UniProt P08172); test: Cross screening: M2 (CHRM2) Human Ag; assay type: biochemical
T2 construct: purchased GSK enhanced cross-screening panel (in-house)

Alpha 1B = molecular target: T3, Alpha 1B (Homo sapiens, UniProt P35368); test: Cross screening: Alpha 1B antagonist; assay type: biochemical
T3 construct: purchased GSK enhanced cross-screening panel (in-house)

Dopamine D2 = molecular target: T4, Dopamine D2 (Homo sapiens, UniProt P14416); test: Cross screening: Dopamine D2 Agonist; assay type: biochemical
T4 construct: purchased GSK enhanced cross-screening panel (in-house)

BRD4 BD2 [1] = test: BRD4 BD2 TR-FRET assay; assay type: binding, human
Method: As a strategic decision, every compound synthesized across all of GSK’s bromodomain research projects was tested in both a BRD4 BD1 and a BRD4 BD2 TR-FRET assay as part of tier 1 data generation. […] LipE is a straightforward, yet powerful metric for medicinal chemistry teams to normalize potency relative to lipophilicity, a critical factor both for parameters of the human dose equation and also for promiscuity.[43],[44] To aid interpretation, diagonal lines representing different LipE values are shown, with the most desirable space found toward the top left-hand area of the plot representing molecules with the comparatively highest potency per unit of lipophilicity.
(§3) All TR-FRET and hWB cytokine assays have been described previously.[54]

BRDT BD1 [2] = molecular target: T5, BRDT BD1 (Homo sapiens, UniProt Q58F21); test: BRDT BD1 TR-FRET assay; assay type: binding
Method: as §1, §3

CYP3A4 = CYP3A4 (Homo sapiens, UniProt P08684); test: Cross screening: CYP3A4 inhibition
BRD2 BD1 [3] = molecular target: T6, BRD2 BD1 (Homo sapiens, UniProt P25440); test: BROMOscan BRD2 BD1; assay type: binding
Method: as §1, §2

5-HT3 = molecular target: T7, 5-HT3 (Homo sapiens, UniProt P46098); test: Cross screening: 5-HT3 antagonist; assay type: biochemical
T7 construct: purchased GSK enhanced cross-screening panel (in-house)

hCav1_2 = molecular target: T8, hCav1_2 (Homo sapiens, UniProt Q13936); test: Cross screening: hCav1_2 Blocker; assay type: biochemical
T8 construct: purchased GSK enhanced cross-screening panel (in-house)

BRD2 BD1 [4] = molecular target: T6, BRD2 BD1; test: BRD2 BD1 TR-FRET assay; assay type: binding
Method: as §1, §3

CECR2 = molecular target: T9, CECR2 (Homo sapiens, UniProt Q9BXF3); test: BROMOscan CECR2; assay type: binding
T9 construct: ≥2000-fold selectivity over all 20 non-BET bromodomains tested; purchased DiscoverX
Method: as §1, §2

BRD3 BD1 = molecular target: T10, BRD3 BD1 (Homo sapiens, UniProt Q15059); test: BRD3 BD1 TR-FRET assay; assay type: binding
T10 construct: BRD3 BD1; purchased DiscoverX
Method: as §1, §3

PBRM1 BD5 = molecular target: T11, PBRM1 BD5 (Homo sapiens, UniProt Q86U86); test: BROMOscan PBRM1 BD5; assay type: binding
T11 construct: PBRM1 BD5; purchased DiscoverX
Method: as §1, §2

Alpha 1 nAChR = molecular target: T12, Alpha 1 nAChR (Homo sapiens, UniProt P02708+P07510+Q07001); test: Cross screening: Alpha 1 nAChR Agonist; assay type: biochemical
T12 construct: purchased GSK enhanced cross-screening panel (in-house)

K1 = test: Cross screening: K1 Agonist; assay type: biochemical
[5] = Artificial membrane permeability assay; conditions: PAMPA
Method: as §1
ChromatographicLogD at pH 7.4, artificial membrane permeability, CLND solubility, and CAD solubility were measured using published protocols.[55]

BRDT BD1 [6] = molecular target: T5, BRDT BD1; test: BROMOscan BRDT BD1; assay type: binding
Method: as §1, §2

BET BD1 = test: BET family BD1/BD2 profiling (TR-FRET, BROMOscan); assay type: binding, human
Method: as §1, §3, §2

GCN5 = molecular target: T13, GCN5 (Homo sapiens, UniProt Q92830); test: BROMOscan GCN5; assay type: binding
T13 construct: ≥2000-fold selectivity over all 20 non-BET bromodomains tested; purchased DiscoverX
Method: as §1, §2

NMDA 1A/2B = molecular target: T14, NMDA 1A/2B (Homo sapiens, UniProt Q05586+Q13224); test: Cross screening: NMDA 1A/2B antagonist; assay type: biochemical
T14 construct: purchased GSK enhanced cross-screening panel (in-house)

Beta2 Adrenoceptor [7] = molecular target: T15, Beta2 Adrenoceptor (Homo sapiens, UniProt P07550); test: Cross screening: Beta2 Adrenoceptor Antagonist; assay type: biochemical
T15 construct: purchased GSK enhanced cross-screening panel (in-house)

[8] = molecular target: T16, Aryl Hydrocarbon Receptor (Homo sapiens, UniProt P35869); test: Cross screening: Aryl Hydrocarbon Receptor; assay type: biochemical
T16 construct: purchased GSK enhanced cross-screening panel (in-house)

OATP1B1 = OATP1B1 (Homo sapiens, UniProt Q9Y6L6); test: Cross screening: OATP1B1 inhibitor
hERG = hERG (Homo sapiens, UniProt Q12809); test: Cross screening: hERG blocker
BRD9 = molecular target: T17, BRD9 (Homo sapiens, UniProt Q9H8M2); test: BROMOscan BRD9; assay type: binding
T17 construct: ≥2000-fold selectivity over all 20 non-BET bromodomains tested; purchased DiscoverX
Method: as §1, §2

Beta2 Adrenoceptor [9] = molecular target: T15, Beta2 Adrenoceptor; test: Cross screening: Beta2 Adrenoceptor Human Agonist; assay type: biochemical
PI3K-gamma = molecular target: T18, PI3K-gamma (Homo sapiens, UniProt P48736); test: Cross screening: PI3K-gamma inhibitor; assay type: biochemical
T18 construct: purchased GSK enhanced cross-screening panel (in-house)

BRPF3 = molecular target: T19, BRPF3 (Homo sapiens, UniProt Q9ULD4); test: BROMOscan BRPF3; assay type: binding
T19 construct: ≥2000-fold selectivity over all 20 non-BET bromodomains tested; purchased DiscoverX
Method: as §1, §2

PBRM1 BD2 = molecular target: T20, PBRM1 BD2 (Homo sapiens, UniProt Q86U86); test: BROMOscan PBRM1 BD2; assay type: binding
T20 construct: PBRM1 BD2; purchased DiscoverX
Method: as §1, §2

BRD4 BD2 [10] = molecular target: T21, BRD4 BD2 (Homo sapiens, UniProt O60885); test: BROMOscan BRD4 BD2; assay type: binding
T21 construct: BRD4 BD2; purchased DiscoverX
Method: as §1, §2

BRD3 BD2 = BRD3 BD2 (Homo sapiens, UniProt Q15059); test: BROMOscan BRD3 BD2; assay type: binding
Method: as §1, §2

GR = molecular target: T22, GR (Homo sapiens, UniProt P04150); test: Cross screening: GR Agonist; assay type: biochemical
T22 construct: purchased GSK enhanced cross-screening panel (in-house)

M1 = molecular target: T23, M1 (Homo sapiens, UniProt P11229); test: Cross screening: M1 antagonist; assay type: biochemical
T23 construct: purchased GSK enhanced cross-screening panel (in-house)

Nav1.5 = Nav1.5 (Homo sapiens, UniProt Q14524); test: Cross screening: Nav1.5 blocker
Chain of Nav1.5 (Q14524 whole entry): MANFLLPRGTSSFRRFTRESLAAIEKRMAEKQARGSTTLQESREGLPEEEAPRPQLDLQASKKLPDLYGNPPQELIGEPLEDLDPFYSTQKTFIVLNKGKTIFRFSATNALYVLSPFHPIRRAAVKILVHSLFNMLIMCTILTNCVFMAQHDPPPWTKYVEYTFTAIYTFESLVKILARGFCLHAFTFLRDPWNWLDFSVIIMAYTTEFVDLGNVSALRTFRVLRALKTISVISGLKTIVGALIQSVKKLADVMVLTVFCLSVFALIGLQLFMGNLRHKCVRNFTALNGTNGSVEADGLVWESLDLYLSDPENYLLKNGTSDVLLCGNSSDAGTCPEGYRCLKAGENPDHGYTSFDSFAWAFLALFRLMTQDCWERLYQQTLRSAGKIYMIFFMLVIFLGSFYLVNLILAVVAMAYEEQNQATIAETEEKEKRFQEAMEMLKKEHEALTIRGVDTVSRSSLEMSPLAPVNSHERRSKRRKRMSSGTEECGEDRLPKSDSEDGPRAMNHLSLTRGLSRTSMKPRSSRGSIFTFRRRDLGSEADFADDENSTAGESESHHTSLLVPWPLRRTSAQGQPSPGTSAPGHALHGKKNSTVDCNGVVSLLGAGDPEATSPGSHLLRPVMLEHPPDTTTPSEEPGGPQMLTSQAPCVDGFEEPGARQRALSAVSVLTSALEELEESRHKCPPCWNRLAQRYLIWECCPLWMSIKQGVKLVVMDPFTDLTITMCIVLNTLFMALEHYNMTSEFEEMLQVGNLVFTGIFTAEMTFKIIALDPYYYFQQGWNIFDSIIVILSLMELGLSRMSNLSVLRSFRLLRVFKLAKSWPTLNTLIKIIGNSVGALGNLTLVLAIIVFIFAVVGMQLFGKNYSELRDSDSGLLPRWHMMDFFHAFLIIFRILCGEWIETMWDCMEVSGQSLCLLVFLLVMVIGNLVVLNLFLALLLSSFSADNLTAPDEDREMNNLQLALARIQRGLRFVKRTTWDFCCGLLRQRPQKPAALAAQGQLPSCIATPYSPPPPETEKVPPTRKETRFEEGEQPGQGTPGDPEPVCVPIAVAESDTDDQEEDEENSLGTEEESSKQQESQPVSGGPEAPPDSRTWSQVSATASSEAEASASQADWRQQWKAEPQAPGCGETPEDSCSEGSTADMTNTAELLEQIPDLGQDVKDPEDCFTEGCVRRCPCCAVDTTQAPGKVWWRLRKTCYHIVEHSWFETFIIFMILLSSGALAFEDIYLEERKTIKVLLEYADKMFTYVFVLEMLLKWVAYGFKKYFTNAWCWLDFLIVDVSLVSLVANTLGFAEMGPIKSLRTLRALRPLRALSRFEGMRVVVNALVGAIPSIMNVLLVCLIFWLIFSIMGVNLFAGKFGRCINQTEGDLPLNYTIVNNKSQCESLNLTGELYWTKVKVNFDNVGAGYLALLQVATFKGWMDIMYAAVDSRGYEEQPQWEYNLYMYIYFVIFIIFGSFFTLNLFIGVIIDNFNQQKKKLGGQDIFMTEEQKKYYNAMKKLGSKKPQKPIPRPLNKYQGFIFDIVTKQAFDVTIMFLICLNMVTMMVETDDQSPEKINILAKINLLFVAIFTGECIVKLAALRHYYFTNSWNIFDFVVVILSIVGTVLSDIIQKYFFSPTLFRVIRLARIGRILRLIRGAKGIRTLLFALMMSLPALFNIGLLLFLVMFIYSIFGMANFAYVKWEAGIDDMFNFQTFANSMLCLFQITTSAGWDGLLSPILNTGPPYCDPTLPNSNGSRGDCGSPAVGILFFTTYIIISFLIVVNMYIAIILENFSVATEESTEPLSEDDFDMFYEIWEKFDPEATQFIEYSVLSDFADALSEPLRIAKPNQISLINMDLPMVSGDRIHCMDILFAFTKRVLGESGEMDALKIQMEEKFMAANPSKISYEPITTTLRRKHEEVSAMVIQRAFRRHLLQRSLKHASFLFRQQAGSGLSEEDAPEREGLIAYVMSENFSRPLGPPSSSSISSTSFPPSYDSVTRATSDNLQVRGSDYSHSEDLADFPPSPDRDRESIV

T6 sequence (P25440 74-180 limits assumed): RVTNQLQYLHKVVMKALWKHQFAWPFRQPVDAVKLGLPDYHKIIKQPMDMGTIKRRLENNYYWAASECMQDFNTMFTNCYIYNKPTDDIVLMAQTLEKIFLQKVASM
T15 sequence (P07550 whole entry): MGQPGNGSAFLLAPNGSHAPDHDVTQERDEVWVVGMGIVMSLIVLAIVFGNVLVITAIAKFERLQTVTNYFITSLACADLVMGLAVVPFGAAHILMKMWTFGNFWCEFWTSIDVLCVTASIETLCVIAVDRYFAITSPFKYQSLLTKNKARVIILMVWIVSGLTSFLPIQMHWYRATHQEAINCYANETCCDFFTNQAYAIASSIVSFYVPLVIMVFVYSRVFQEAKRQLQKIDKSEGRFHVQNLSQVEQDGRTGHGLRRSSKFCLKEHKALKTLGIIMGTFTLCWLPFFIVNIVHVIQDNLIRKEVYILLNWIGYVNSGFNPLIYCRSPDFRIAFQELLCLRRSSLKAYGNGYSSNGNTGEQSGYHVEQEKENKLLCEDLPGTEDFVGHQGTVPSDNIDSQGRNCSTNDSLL
T10 sequence (Q15059 34-140 limits assumed): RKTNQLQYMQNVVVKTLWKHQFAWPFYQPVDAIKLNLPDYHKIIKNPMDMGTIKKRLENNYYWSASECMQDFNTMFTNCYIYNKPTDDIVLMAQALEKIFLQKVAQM
T1 sequence (P55201 628-732 limits assumed): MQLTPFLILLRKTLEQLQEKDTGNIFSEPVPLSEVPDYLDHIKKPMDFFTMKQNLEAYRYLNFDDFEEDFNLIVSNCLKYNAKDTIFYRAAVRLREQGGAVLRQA
T17 sequence (Q9H8M2 136-240 limits assumed): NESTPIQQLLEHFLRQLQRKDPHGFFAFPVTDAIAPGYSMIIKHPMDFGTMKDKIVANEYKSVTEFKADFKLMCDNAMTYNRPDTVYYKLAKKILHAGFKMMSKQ
T13 sequence (Q92830 728-832 limits assumed): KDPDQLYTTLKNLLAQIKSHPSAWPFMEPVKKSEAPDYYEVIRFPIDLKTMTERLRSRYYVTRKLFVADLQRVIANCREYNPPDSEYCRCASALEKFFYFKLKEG
T20 sequence (Q86U86 177-287 limits assumed): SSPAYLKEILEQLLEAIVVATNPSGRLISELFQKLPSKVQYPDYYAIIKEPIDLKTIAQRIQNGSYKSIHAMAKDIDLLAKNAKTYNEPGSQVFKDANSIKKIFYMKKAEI
T2 sequence (P08172 whole entry): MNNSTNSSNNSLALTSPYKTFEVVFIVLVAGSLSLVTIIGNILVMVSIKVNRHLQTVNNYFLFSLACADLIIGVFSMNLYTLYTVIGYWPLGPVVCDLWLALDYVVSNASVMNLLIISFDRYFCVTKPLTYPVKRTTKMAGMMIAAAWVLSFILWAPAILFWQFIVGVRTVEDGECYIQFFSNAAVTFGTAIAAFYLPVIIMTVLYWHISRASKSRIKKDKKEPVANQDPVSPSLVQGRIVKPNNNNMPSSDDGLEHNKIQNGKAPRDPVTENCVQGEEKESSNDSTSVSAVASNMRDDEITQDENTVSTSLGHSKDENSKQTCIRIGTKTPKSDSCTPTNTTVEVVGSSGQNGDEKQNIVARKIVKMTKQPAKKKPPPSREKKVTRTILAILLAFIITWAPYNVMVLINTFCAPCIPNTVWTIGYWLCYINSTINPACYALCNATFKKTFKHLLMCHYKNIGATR
T23 sequence (P11229 whole entry): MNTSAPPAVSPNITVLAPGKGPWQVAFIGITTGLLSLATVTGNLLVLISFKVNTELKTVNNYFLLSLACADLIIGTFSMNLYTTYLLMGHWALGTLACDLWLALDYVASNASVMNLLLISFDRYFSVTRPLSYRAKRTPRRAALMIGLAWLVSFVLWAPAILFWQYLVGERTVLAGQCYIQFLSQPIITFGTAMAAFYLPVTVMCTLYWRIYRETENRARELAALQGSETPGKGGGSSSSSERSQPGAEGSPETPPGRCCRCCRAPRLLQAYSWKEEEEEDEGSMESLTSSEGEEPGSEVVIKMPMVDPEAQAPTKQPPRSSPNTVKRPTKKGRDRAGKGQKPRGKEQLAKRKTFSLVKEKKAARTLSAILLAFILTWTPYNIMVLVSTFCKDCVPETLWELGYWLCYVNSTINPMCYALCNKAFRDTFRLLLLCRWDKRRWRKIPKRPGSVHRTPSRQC
T16 sequence (P35869 11-848): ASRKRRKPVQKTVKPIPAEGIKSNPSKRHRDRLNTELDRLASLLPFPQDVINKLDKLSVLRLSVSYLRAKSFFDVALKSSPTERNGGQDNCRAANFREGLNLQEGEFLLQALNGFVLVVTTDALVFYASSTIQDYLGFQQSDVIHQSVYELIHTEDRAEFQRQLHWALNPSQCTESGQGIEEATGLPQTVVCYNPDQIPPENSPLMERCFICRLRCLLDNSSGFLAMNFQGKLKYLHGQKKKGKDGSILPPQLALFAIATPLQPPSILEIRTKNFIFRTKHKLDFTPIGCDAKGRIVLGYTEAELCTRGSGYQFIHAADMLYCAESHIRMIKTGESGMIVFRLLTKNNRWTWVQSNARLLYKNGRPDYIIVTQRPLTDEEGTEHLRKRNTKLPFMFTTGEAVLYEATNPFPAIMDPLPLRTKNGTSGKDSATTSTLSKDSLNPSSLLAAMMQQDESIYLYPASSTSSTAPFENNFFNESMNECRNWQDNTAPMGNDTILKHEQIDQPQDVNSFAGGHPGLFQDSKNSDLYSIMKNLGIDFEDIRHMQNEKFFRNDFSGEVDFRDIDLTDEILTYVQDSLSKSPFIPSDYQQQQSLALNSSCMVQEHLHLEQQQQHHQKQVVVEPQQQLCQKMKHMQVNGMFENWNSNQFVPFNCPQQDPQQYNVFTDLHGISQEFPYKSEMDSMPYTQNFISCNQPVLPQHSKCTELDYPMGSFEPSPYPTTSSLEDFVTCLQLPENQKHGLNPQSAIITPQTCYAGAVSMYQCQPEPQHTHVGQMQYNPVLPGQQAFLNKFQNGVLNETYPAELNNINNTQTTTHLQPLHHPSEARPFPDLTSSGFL
Chain of BRD3 BD2 (Q15059 306-415 limits assumed): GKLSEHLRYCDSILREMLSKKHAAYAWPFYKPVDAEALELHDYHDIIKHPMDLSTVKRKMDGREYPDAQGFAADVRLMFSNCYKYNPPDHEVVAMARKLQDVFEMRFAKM

In the case of Cc1cc(-c2nc3ccccc3n2C[C@@H]2CCCN(C(=O)C3CCN(C(C)C)CC3)C2)cn(C)c1=O [Compound 31, (S)-5-(1-((1-(1-Isopropylpiperidine-4-carbonyl)piperidin-3-yl)methyl)-1H-benzo [d]imidazole-2-yl)-1,3-dimethylpyridin-2(1H)-one], the Kd (BRPF1) is reported as 15.8 µM, the “pXC50 M2 (CHRM2) Human Ag” value (M2 (CHRM2)) is reported as < 4.3 and the “pXC50 Alpha 1B antagonist” value (Alpha 1B) is reported as < 4.6. For the same molecule, the “pXC50 Dopamine D2 Agonist” value (Dopamine D2) was < 4.0, the “BRD4 BD2 FRET pIC50” value (BRD4 BD2 [1]) was 4.8 and the “BRDT BD1 TR-FRET pIC50” value (BRDT BD1 [2]) was 7.3. The “fold selectivity BRDT BD1 over BD2” value (BRDT BD1 [2]; TR-FRET) was 630 fold, the “pXC50 CYP3A4 inhibition” value (CYP3A4) was 4.1 and the “BROMOscan pKd BRD2 BD1” value (BRD2 BD1 [3]) was 8.5. For the same molecule, the “fold selectivity BRD2 BD1 over BD2” value (BRD2 BD1 [3]; BROMOscan) was 1000 fold, the “pXC50 5-HT3 antagonist” value (5-HT3) was < 4.3 and the “pXC50 hCav1_2 Blocker” value (hCav1_2) was < 4.0. For the same molecule, the “BRD2 BD1 TR-FRET pIC50” value (BRD2 BD1 [4]) was 8.0, the “fold selectivity BRD2 BD1 over BD2” value (BRD2 BD1 [4]; TR-FRET) was 400 fold and the Kd (CECR2) was > 31.6 µM. The “BRD3 BD1 TR-FRET pIC50” value (BRD3 BD1) was 7.7, the “fold selectivity BRD3 BD1 over BD2” value (BRD3 BD1; TR-FRET) was 400 fold and the Kd (PBRM1 BD5) was > 31.6 µM. The “pXC50 Alpha 1 nAChR Agonist” value (Alpha 1 nAChR) was < 4.2, the “pXC50 K1 Agonist” value (K1) was < 4.0 and the Papp [5] was < 0.3 ×10⁻⁶ cm/s. For the same molecule, the “BROMOscan pKd BRDT BD1” value (BRDT BD1 [6]) was 8.1, the “fold selectivity BRDT BD1 over BD2” value (BRDT BD1 [6]; BROMOscan) was 400 fold and the “BD1 domain selectivity over BD2 across the four isoforms” value (BET BD1; TR-FRET BRD2, BRD3, BRD4, BRDT) was “at least 400 fold”. The “BET BD1 domain selectivity” value (BET BD1; depending on protein and assay format) was 300–1000 fold, the Kd (GCN5) was > 31.6 µM and the “pXC50 NMDA 1A/2B antagonist” value (NMDA 1A/2B) was < 4.0. For the same molecule, the “pXC50 Beta2 Adrenoceptor Antagonist” value (Beta2 Adrenoceptor [7]) was < 4.0, the “pXC50 Aryl Hydrocarbon Receptor” value [8] was < 4.0 and the “pXC50 OATP1B1 inhibitor” value (OATP1B1) was < 4.3. The “pXC50 hERG blocker” value (hERG) was < 4.3, the Kd (BRD9) was 25.1 µM and the “pXC50 Beta2 Adrenoceptor Human Agonist” value (Beta2 Adrenoceptor [9]) was < 4.0. The “pXC50 PI3K-gamma inhibitor” value (PI3K-gamma) was < 4.5, the Kd (BRPF3) was > 31.6 µM and the Kd (PBRM1 BD2) was > 31.6 µM. For the same molecule, the “BROMOscan pKd BRD4 BD2” value (BRD4 BD2 [10]) was 5.6, the “BROMOscan pKd BRD3 BD2” value (BRD3 BD2) was 5.8 and the “pXC50 GR Agonist” value (GR) was < 4.0. The “pXC50 M1 antagonist” value (M1) was < 4.3 and the “pXC50 Nav1.5 blocker” value (Nav1.5) was < 4.3.

From publication PMC10726358 (Journal of Medicinal Chemistry, 2023)
